In patent US20110200685A1, “Methods and compositions for the reduction of pathogenic microorganisms from meat and poultry carcasses, trim and offal” (priority 2010, published 2011):
Values joined by “and” are separate entries in the source; they are usually repeats but may differ in a detail not shown here. Equal values may be shown once.

What was measured:
[1] = system: Salmonella typhimurium (ATCC 14028); experiment: Surface-associated bacteria remaining on chicken after 40 minute chilled immersion (Example 11); assay type: cell-based; details: chicken halves
Method: Most poultry processing facilities cool the product by submerging it for 30-60 minutes in a chiller tank containing an antimicrobial chemical. The chilled water solution is typically around 35° F. (Food Contact Notification, nos. 334 and 453). Therefore, the microbiological efficacy of the HOBr derived from NaOCl-activated HBr and the HOBr from DBDMH were compared by immersing chickens inoculated with a culture of Salmonella typhimurium (ATCC 14028) bacteria. An inoculum was prepared in the same manner as described in Example 10. This time the inoculum yielded a Salmonella typhimurium population of 3.78×10^8 CFU/ml, or log10 8.58. This was then sprayed onto both sides of the chicken halves and left to marinate for two hours. The average weight of the whole chicken used in this portion of the study was 5.20 lbs.
Each test solution was made with chilled water immediately prior to use. For each test solution and the control, two chicken halves were placed in a plastic storage bin containing one quart of test solution. A sterilized ice pack was placed in the bin to accompany the chicken and maintain water temperature. The chicken halves were allowed to sit in the chilled solution for 40 minutes at 35° F., and were turned every five minutes while gently agitating the storage bin. All containers were covered using aluminum foil to prevent degradation of the active ingredients by UV light.
In summary: • a) Control: Two chicken halves—city water • b) DBDMH: Two chicken halves—95 ppm as total bromine • c) NaOCl/HBr: Two chicken halves—100 ppm as total bromine
After spraying, each chicken half was gently shaken three times to remove excess liquid and returned to a new, sterile bag. 300 g of city water was introduced to the bag and the bag was tumbled vigorously for one minute to dislodge viable surface-associated Salmonella bacteria. The water left at the bottom of the bag was plated using 3M Petrifilm Enterobacteriaceae Plates and incubated at 35° C. for 24 hours, upon which the plates were enumerated.

[2] = system: E. coli O157:H7; experiment: Surface-associated bacteria remaining on beef and pork after 30 second spray (Example 9); assay type: cell-based; details: for log10 (remaining): 30 second spray 50 psi, DBDMH 288 ppm Br2, NaOCl/HBr 279 ppm Br2; for % reduction / log10 reduction: vs city water control
Source text: (§1) The microbiological efficacy of the HOBr derived from NaOCl/HBr and the HOBr from DBDMH were compared against a culture of E. coli O157:H7 bacteria that was sprayed onto the surface of beef and pork meat.
(§2) Meat processing facilities commonly treat beef and pork with antimicrobial solutions for about 30 seconds by spraying the beef and pork carcasses and trim with the solution in a spray cabinet. To simulate this process, a small spray cabinet was constructed for the study. A 30-gallon, open-headed drum was equipped with three ½ inch PVC section of pipe that were vertically oriented and positioned 120 degrees apart. Each section of pipe had two spay nozzles four inches apart positioned to form a spray zone in the center of the drum. An air-assisted diaphragm pump was used to deliver the test solution into the three ½ inch PVC pipe sections and through the nozzles. A regulator on the air pump was used to adjust the pressure of the spray as necessary.
(§3) A stock solution of a field strain of E. coli O157:H7 was incubated at 35° C. for four days in Sigma Nutrient Broth for microbial culture. Three daily, consecutive transfers of the inoculums were made to ensure that a sufficient concentration of E. coli O157:H7 was available for the study. The broth and bacteria mixture was then centrifuged leaving the E. coli O157:H7 to be re-suspended in approximately 500 ml Butterfield's Buffer. The E. coli O157:H7 buffer solution was serially diluted and plated on 3M Petrifilm E. coli plates, incubated at 35° C. for 48 hours where it was determined that the E. coli O157:H7 population was 6.76×10^7 CFU/ml or log10 7.83.
The type of beef used was chuck roast, which was cut into nine equal pieces. The average weight of beef piece used in this portion of the study was 257.1 g. Nine boneless pork chops of average weight of pork 142.9 g were used.
(§4) In summary: • Beef— • a) Control: Three beef pieces—city water • b) DBDMH: Three beef pieces—288 ppm Br2 • c) NaOCl/HBr: Three beef pieces—279 ppm Br2 • Pork— • a) Control: Three pork pieces—city water • b) DBDMH: Three pork pieces—288 ppm Br2 • c) NaOCl/HBr: Three pork pieces—279 ppm Br2
(§5) During the 30 second spray, a piece of meat was held by a hook and moved up and down in the spray zone of the spray cabinet with rotation to ensure even distribution of the solution over the surface. The spray pressure was set at 50 psi.
After spraying, each meat piece was gently shaken three times to remove excess liquid and returned to a new, sterile bag containing 200 g of city water. The bag was sealed and then vigorously agitated manually for one minute to dislodge any viable surface-associated bacteria from the meat and into the aqueous phase. The water was then plated using 3M Petrifilm E. coli plates and incubated at 35° C. for 48 hours, after which the plates were enumerated. All plating for E. coli was performed within five minutes of completing the spray.

[3] = Relative stability (decay) of HOBr from NaOCl-activated HBr vs DBDMH, 600 ppm as bromine (Example 4); assay type: physicochemical; details: HOBr 600 ppm as bromine; stored in the dark; 70-75° F.
Method: The relative stability of HOBr derived from NaOCl-activated HBr and HOBr derived from DBDMH was compared side-by-side. A solution of HOBr (600 ppm as bromine) was used in the comparison because this is the amount of bromine that typically exits the commercial DBDMH feeders when the solid product is dissolved. The activity of the solutions was measured using the DPD Total chlorine colorimetric method. Solutions were stored in the dark to prevent photodegradation due to UV light exposure. The temperature ranged from 70-75° F. for the duration of the test.
The HOBr decay profiles for the 600 ppm (as bromine) solutions derived from NaOCl-activated HBr solution and DBDMH solution are plotted in FIG. 2.
Graphs of ln(Co/Ct) where Co is the initial concentration of HOBr and Ct is the concentration at day t were close to straight lines for both the DBDMH and NaOCl-activated HBr derived solutions. (the regression analysis correlation coefficient, R^2 values were close to 1). The R^2 value for the DBDMH and the NaOCl-activated HBr solutions were 0.9251 and 0.9302, respectively. […]
The half-lives of HOBr from the HBr-activated solution and the DBDMH solution were calculated by […]—the natural logarithm (ln) of 2.

[4] = Octanol-Water Partition Coefficient of HOBr (Example 13); assay type: physicochemical
Method: In order to quantify the lipophilicity of HOBr solutions prepared from NaOCl-activated HBr, the Octanol-Water Partition Coefficient was determined.
The Octanol-Water Partition Coefficient is defined as:
Pow=Octanol-Water Partition Coefficient. Commonly the logarithm of this number is reported as Log Pow
A high concentration of a HOBr solution was prepared by introducing sufficient NaOCl to activate 3.34 ml 48% HBr in 900 ml RO water until the pH was 7.23. By iodometric titration, the solution was determined to contain 5625 ppm as Br2. The slightly yellow activated solution (25 ml) was poured into an Erlenmeyer flask containing octanol (25 ml). This was mixed for two minutes using a high-speed magnetic stirrer after which the two phases were allowed to separate. All of the yellow color had phase-separated into the top octanol layer. […] The Pow was calculated to be 1.97. This was repeated for lower concentrations of HOBr by preparing a stock solution of 300 ppm as Br2 using 0.2 ml 48% HBr in 900 ml RO water and adding sufficient NaOCl bleach until the pH was 7.33. From the 300 ppm as Br2 stock solution, solutions of 200 and 100 ppm as Br2 were prepared.
A saturated solution of DBDMH was prepared by slurrying DBDMH (1 g) powder in RO water (99 g) and stirring rapidly for 20 minutes. Undissolved solids were removed by gravity filtration. By iodometric titration, the solution was determined to contain 1170 ppm as Br2. The DBDMH solution (25 ml) was poured into an Erlenmeyer flask containing octanol (25 ml). This was mixed for two minutes using a high-speed magnetic stirrer after which the two phases were allowed to separate. […] The Pow was calculated to be 0.808. The 1170 ppm as Br2 stock solution was then used to prepare solution of 300, 200 and 100 ppm as Br2 solutions.

[5] = system: Salmonella typhimurium (ATCC 14028); experiment: Surface-associated bacteria remaining on chicken after 30 second spray (Example 10); assay type: cell-based; details: chicken halves
Source text: In the processing of poultry, birds that are deemed by the USDA inspectors to have undesirable levels of fecal contamination are directed to a dedicated cabinet where they are sprayed with an antimicrobial solution. If the fecal contamination were not removed, birds harboring the pathogenic Salmonella organism would enter the human food chain. Therefore, the microbiological efficacy of the HOBr derived from NaOCl/HBr and the HOBr from DBDMH were compared on chicken inoculated with a culture of Salmonella typhimurium (ATCC 14028) bacteria.
A stock solution of Salmonella typhimurium (ATCC 14028) was incubated at 35° C. for four days in Sigma Nutrient Broth for microbial culture. Three daily, consecutive transfers of the inoculums were made to ensure that a sufficient concentration of Salmonella typhimurium was available for the study. The broth and bacteria mixture was then centrifuged leaving the Salmonella typhimurium to be re-suspended in approximately 500 ml Butterfield's Buffer. The Salmonella buffer solution was serially diluted and plated on 3M Petrifilm Enterobacteriaceae Plates, incubated at 35° C. for 24 hours where it was determined that the Salmonella typhimurium population was 2.34×10^8 or log10 8.37 CFU/ml (colony forming units per milliliter).
Three whole, uncooked chickens were purchased from a local grocer. The average weight of the whole chickens was 5.30 pounds. The organs were removed from each chicken and subsequently, each chicken was cut evenly in half down the back leaving six equal halves which contained a back, breast, thigh and leg. The chicken halves were then patted dry with a paper towel, sprayed liberally on all sides and marinated with Salmonella typhimurium—Butterfield's Buffer solution inoculums for two hours, turning occasionally.
The six chicken pieces were introduced to the spray cabinet used in Example 9. […] The concentration of HOBr was measured prior to spraying the meat pieces by using a HACH DR/700 Colorimeter and HACH 10 ml DPD Total Chlorine pillow packets. […]

[6] = system: E. coli O157:H7; experiment: Microbiological quality of wash water after spraying inoculated beef and pork (Example 9); assay type: cell-based; details: for log10 (remaining): 30 second spray 50 psi; for log10 reduction: vs city water control
Source text: as §1, §2, §3, §4, §5
Immediately after each piece was sprayed, a sample of the wash solution was taken from the bottom of the spray cabinet drum for microbial analysis. The solutions were plated on 3M Petrifilm E. coli plates and incubated at 35° C. for 48 hours.

[7] = immersion 40 minutes, vs city water control
[8] = Concentration HOBr (as Br2) 100
[9] = Concentration HOBr (as Br2) 200
[10] = Concentration HOBr (as Br2) 300
[11] = Concentration HOBr (as Br2) 1170 (saturated solution)
[12] = 30 second spray, vs city water control

CC1(C)C(=O)N(Br)C(=O)N1Br [DBDMH, 1,3-dibromo-5,5-dimethylhydantoin]
log10 (remaining) ([1]; immersion 40 minutes at 35° F., DBDMH 95 ppm, NaOCl/HBr 100 ppm as total bromine, control 6.54): 6.25 log10 CFU/ml | % reduction [1, 7]: 48.71% | log10 reduction [1, 7]: 0.29 log10 CFU/ml | log10 (remaining) ([2]; on beef, control 6.15): 5.56 log10 | % reduction ([2]; on beef): 74.30% | log10 reduction ([2]; on beef): 0.59 log10 | log10 (remaining) ([2]; on pork, control 6.43): 5.71 log10 | % reduction ([2]; on pork): 80.95% | log10 reduction ([2]; on pork): 0.72 log10 | rate constant of HOBr decay [3]: 0.051 day⁻¹ | Concentration in aqueous phase after partitioning into octanol [4, 8]: 19.125 ppm as Br2 | Pow HOBr [4, 8]: 0.645 | Concentration in aqueous phase after partitioning into octanol [4, 9]: 34.99 ppm as Br2 | Pow HOBr [4, 9]: 0.719 | Concentration in aqueous phase after partitioning into octanol [4, 10]: 50.74 ppm as Br2 | Pow HOBr [4, 10]: 0.731 | Concentration in aqueous phase after partitioning into octanol [4, 11]: 159.7 ppm as Br2 and 157.5 ppm as Br2 | Pow HOBr [4, 11]: 0.808 | log10 (remaining) ([5]; 30 second spray 40 psi, DBDMH 295 ppm, NaOCl/HBr 275 ppm as total bromine, control 6.15): 5.85 log10 CFU/ml | % reduction [5, 12]: 49.88% | log10 reduction [5, 12]: 0.30 log10 CFU/ml | log10 (remaining) ([6]; beef, DBDMH 288 ppm Br2, NaOCl/HBr 279 ppm Br2, control 5.01): 0.48 log10 | log10 reduction ([6]; beef): 4.53 log10 | log10 (remaining) ([6]; pork, DBDMH 288 ppm Br2, NaOCl/HBr 279 ppm Br2, control 5.18): 0.99 log10 | log10 reduction ([6]; pork): 4.19 log10
